Results: publication PMC9356726 (Molecular Biology and Evolution, 2022)

Tested on: AlmA
Assay type: biochemical, Streptomyces sp. A012304
Conditions: succinyl-CoA regenerated, 20 mM HEPES-NaOH pH 7.5, 20 μM PLP, 3 mM MgCl2, 37°C, 0.01 μM enzyme

- Km: 6.8 ± 1.4 mM
Compound: N[C@@H](CO)C(=O)O [serine]
